Measurements taken from patent US10273442B1, “Device and method for concomitant ejection and suction of perfusate” (priority 2015, dated 2019).
Entries after “also recorded” stand apart in the source; their conditions may differ.

Experiments:
Type in all cases: cell-based, rat
RS cell in LIII of PrS = test: Action potential firing of PrS neurons on local application via CESOP, current-clamp in acute brain slices; settings: glutamate 100 μM, 3 min duration
[1] = tested on: LII stellate cells in MEA; test: Spontaneous postsynaptic currents (sEPSCs, sIPSCs) in LII stellate cells of MEA after focal application of compounds to PrS via CESOP, voltage-clamp in acute brain slices; settings: for percentage reduction in sIPSC frequency following application of the drug: NBQX 10 μM focally to PrS; for average sIPSC frequency / average sEPSC amplitude / average sEPSC frequency: glutamate 100 μM then NBQX 10 μM focally to PrS, mean ±SEM; for average sIPSC frequency: holding 0 mV; for average sEPSC amplitude / average sEPSC frequency: holding -70 mV
Procedure: (§1) Sprague-Dawley rats (male; n=11 epileptic, n=15 controls) from postnatal (P) days 40 to 88 were used in this study. All experiments were carried out in accordance with the National Institute of Health Guide for the Care and Use of Laboratory Animals and were approved by the Florida State University Institutional Animal Care and Use Committee. Rats were made epileptic according to previously described protocols for bringing up the pilocarpine model of TLE. Briefly, rats were treated with pilocarpine (P41, 141±2 g; 380 mg/kg i.p.) 20 min after atropine methylbromide (5 mg/kg i.p.). Diazepam (10 mg/kg i.p.) was administered 2 h after the onset of status epilepticus and repeated as needed. Following recovery from status epilepticus, rats were video monitored (40 h/wk) for spontaneous seizures. Animals used for electrophysiological experiments were confirmed epileptic, displaying frank spontaneous recurrent seizures scored 3 or greater on the Racine scale (Racine 1972) on two or more observations during the 40 h/wk video monitoring. Recordings from epileptic animals were made on average 39 days (P80) post status epilepticus (range: 25-47 days, P66-P88), with initial seizures observed between 5 and 29 days post status. Control groups consisted of naive rats that were on average P70 (range: P49-P91).
(§2) Rats were deeply anesthetized with urethane (1.5 g/kg ip) before being decapitated. Following decapitation, the brain was quickly removed from the skull before being placed in a chilled (4° C.) low-Ca^2+, low-Na^+“cutting solution” containing (in mM) 230 sucrose, 10 D-glucose, 26 NaHCO3, 2.5 KCl, 1.25 NaH2PO4, 10 MgSO4, and 0.5 CaCl2 equilibrated with a 95%-5% mixture of O2 and CO2. After removing the cerebellum and rostral half of the brain, a 10-15° semi-horizontal cut (in a ventral-caudal to dorsal-rostral plane) was made to the dorsal part of the cortex with respect to the horizontal plane (FIG. 2E). The cut dorsal surface of the brain was adhered to the cutting platform using cyanoacrylate glue. This cutting angle was chosen to increase the likelihood of preserving PrS projections to MEA in acute brain slices, because PrS projections tend to travel to the MEA in a lateroventral orientation. Semi-horizontal slices (400 μm) were prepared using a microslicer (VT1000S, Leica, Germany) in the chilled cutting solution and allowed to equilibrate in oxygenated artificial cerebrospinal fluid (aCSF) containing (in mM) 126 NaCl, 26 NaHCO3, 3 KCl, 1.25 NaH2PO4, 2 MgSO4, 2 CaCl2, 0.25 L-Glutamine, and 10 D-glucose (pH 7.4), first at 32° C. for 1 h and subsequently at room temperature before being transferred to the recording chamber.
(§3) Recordings were obtained at 32±1° C. from neurons in LII and LIII of MEA under Nomarski optics (Zeiss) using a visualized infrared setup (Hamamatsu) that enabled identification of their location within the various lamina. On average, 3.5±0.4 (range: 2-5) and 3.6±0.4 (range: 2-6) cells were recorded per animals in the control and epileptic groups respectively. Patch electrodes were pulled from borosilicate glass (1.5 mm outer diameter, 0.75 mm inner diameter, 3-6 MΩ). The internal solution for voltage-clamp experiments contained (in mM): 120 cesium gluconate, 1 MgCl2, 1 CaCl2, 11 CsCl, 10 HEPES, 2 NaATP, 0.3 NaGTP, 1 QX-314, 11 EGTA, and 20 biocytin (pH 7.3, corrected with Cs-OH; final osmotic concentration, 290 mOsm). The internal solution for current-clamp experiments contained (in mM): 105 potassium gluconate, 30 KCl, 10 HEPES, 10 phosphocreatine, 4 MgATP, 0.3 GTP (pH adjusted to 7.3 with KOH; final osmotic concentration, 300 mOsm).
(§4) Recording conditions were the same for control and epileptic animals. Slices were maintained in oxygenated (95% O2-5% CO2) aCSF, flowing at a rate of 2 ml/min. Drugs were applied focally to superficial PrS via the CESOP technique (FIGS. 4A-4E, described below). […]

[2] = tested on: LIII pyramidal neurons in MEA; test: Spontaneous postsynaptic currents (sEPSCs, sIPSCs) in LIII pyramidal neurons of MEA after focal application of compounds to PrS via CESOP, voltage-clamp in acute brain slices
Procedure: as §1, §2, §3, §4

[3] = epileptic rats (pilocarpine model of TLE)
[4] = epileptic conditions, glutamate 100 μM then NBQX 10 μM focally to PrS, holding 0 mV, mean ±SEM

| SMILES | action potential discharge of PrS neurons in response to local application (RS cell in LIII of PrS) | percentage reduction in sIPSC frequency following application of the drug ([1]; control animals) [%] | average sIPSC frequency ([1]; control rats) [Hz] | average sEPSC amplitude ([1]; control rats) [pA] | average sEPSC frequency ([1]; control rats) [Hz] | average sIPSC frequency [1, 3] [Hz] | average sEPSC amplitude [1, 3] [pA] | average sEPSC frequency [1, 3] [Hz] | percentage reduction in sIPSC frequency following application of the drug ([1]; epileptic rats) [%] | sIPSC frequency ([2]; control animals, glutamate 100 μM then NBQX 10 μM focally to PrS, holding 0 mV, mean ±SEM) [Hz] | reduction in sEPSC frequency following application of NBQX ([2]; control conditions, NBQX 10 μM focally to PrS) [%] | average sEPSC frequency ([2]; control rats, glutamate 100 μM then NBQX 10 μM focally to PrS, holding -70 mV, mean ±SEM) [Hz] | average sIPSC amplitude [2, 4] [pA] | average sIPSC frequency [2, 4] [Hz] | sEPSC frequency ([2]; epileptic rats (pilocarpine model of TLE), glutamate 100 μM then NBQX 10 μM focally to PrS, holding -70 mV, mean ±SEM) [Hz] |
| --- | --- | --- | --- | --- | --- | --- | --- | --- | --- | --- | --- | --- | --- | --- | --- |
| N[C@@H](CCC(=O)[O-])C(=O)[O-].[Na+].[Na+] [glutamate, Sodium glutamate] | sustained action potential discharge; also recorded: reliably evokes action potential firing |  |  |  |  |  |  |  |  |  |  |  |  |  |  |
| NS(=O)(=O)c1cccc2c1c([N+](=O)[O-])cc1[nH]c(=O)c(=O)[nH]c12 [NBQX, 2,3-dioxo-6-nitro-1,2,3,4-tetrahydrobenzo[f]quinoxaline-7-sulfonamide] |  | 22 | 11.1±1.4 | 18±1 | 5.6±1 | 7.5±1 | 21±2 | 4.9±0.8 | 11 | 4.5±0.3 | 30 | 4.6±0.6 | 30±2 | 6.8±0.9 | 10.5±2 |
